These compounds were tested against T1, ecdysteroid receptor complex in Plodia interpunctella (IAL-PID2) nuclear extract (Plodia interpunctella, UniProt Q6RVD3) (assay: Competitive 3H-ponasterone A binding assay, Plodia nuclear ecdysone receptor extract). Conditions: 3H-ponasterone A displacement.
T1 sequence (Q6RVD3 1-541): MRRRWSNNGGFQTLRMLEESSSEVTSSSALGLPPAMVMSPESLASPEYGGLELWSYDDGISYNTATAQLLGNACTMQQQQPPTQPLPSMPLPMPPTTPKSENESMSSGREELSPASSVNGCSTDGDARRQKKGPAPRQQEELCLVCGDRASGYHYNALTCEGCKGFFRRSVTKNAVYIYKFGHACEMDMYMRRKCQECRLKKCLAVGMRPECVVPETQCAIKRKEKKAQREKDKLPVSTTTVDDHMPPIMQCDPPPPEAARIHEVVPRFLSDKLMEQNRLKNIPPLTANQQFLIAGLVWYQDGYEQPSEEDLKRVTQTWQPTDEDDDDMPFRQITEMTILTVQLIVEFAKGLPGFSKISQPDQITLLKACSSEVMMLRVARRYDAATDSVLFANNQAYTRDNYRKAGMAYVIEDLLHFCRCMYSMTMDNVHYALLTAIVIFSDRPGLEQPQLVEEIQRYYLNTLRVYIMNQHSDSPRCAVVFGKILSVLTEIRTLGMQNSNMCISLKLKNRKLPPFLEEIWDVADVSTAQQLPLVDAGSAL
T1 sequence (Q6IVK1 1-415 partner): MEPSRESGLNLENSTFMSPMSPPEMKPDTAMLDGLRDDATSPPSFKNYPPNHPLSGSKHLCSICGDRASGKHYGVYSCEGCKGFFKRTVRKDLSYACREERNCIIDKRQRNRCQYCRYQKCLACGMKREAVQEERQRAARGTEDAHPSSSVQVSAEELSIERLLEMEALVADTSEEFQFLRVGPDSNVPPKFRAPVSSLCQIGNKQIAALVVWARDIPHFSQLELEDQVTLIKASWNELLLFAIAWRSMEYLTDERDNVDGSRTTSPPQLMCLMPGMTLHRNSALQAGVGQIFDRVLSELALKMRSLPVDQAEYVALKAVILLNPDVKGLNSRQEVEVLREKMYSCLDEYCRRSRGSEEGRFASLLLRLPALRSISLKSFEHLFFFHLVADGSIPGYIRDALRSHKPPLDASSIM
Procedure: The cell line IAL-PID2, derived from imaginal wing discs of the lepidopteran Plodia interpunctella was obtained from H. Oberlander and maintained as described (Lynn, E. E. and Oberlander, H., (1983), J. Insect Physiology, 29, 591-96). A 300 ml stationary phase culture of P. interpunctella cells was centrifuged at 700×g for 10 mm at room temperature to pellet the cells. The supernatant was aspirated and the cellular pellet resuspended in 35 ml TMT (TM buffer with 0.1% Triton X-100). The suspension was homogenized with twenty up and down strokes of a Dounce homogenizer on ice. Homogenate was incubated on ice for 10 minutes and then centrifuged for 15 min at 900×g. The pellet was resuspenced in 15 ml TM buffer and centrifuged at 2,300×g. This pellet was extracted in TMK buffer (TM buffer with 800 mM KCl) by using a glass rod to crush the pellet until a gelatinous slurry was formed and incubated on ice for 15 minutes. The extract was centrifuged at 100,000×g in a swinging bucket rotor for 60 minutes. The supernatant, which constituted the nuclear extract, was desalted on a 10 DG desalting column (Bio-Rad, 732-2010) equilibrated with T-buffer. The total protein concentration in the nuclear extract was adjusted to 5 mg per ml with T-buffer containing 1 mM DTT.
^3H ponasterone A, a potent phytoecdysteroid, (66,000 dpm; specific activity 170 Ci/mmole; NEN Life Science Products, Boston, Mass.) was mixed with 100 μl Kc cytosolic or Plodia nuclear ecdysone receptor extracts in […] glass test tubes in the absence or presence of 10 μM unlabelled 20-hydroxyecdysone (20E) to obtain an estimate of total or non-specific respectively, binding of tritiated ponasterone A. The tubes were vortexed and incubated overnight at 4° C. for Kc cytosolic extracts or 1.5 hours for Plodia nuclear extracts for binding reactions to reach equilibrium. At the end of equilibrium binding times, the bound tritiated ponasterone A was separated from the unbound by addition of ice-cold 600 μl or 300 μl dextran-coated charcoal solution (500 mg of Sigma HCL-washed activated charcoal, 50 mg Pharmacia Dextran T70, 50 ml T-buffer) to Kc or Plodia extracts, respectively. The tubes were vortexed briefly and centrifuged at 7,000×g to pellet the charcoal. The supernatant, 600 μl or 300 μl for Kc or Plodia extract reactions, respectively, containing tritiated ponasterone A bound to proteins, was aspirated into liquid scintillation vials containing 5 ml scintillation cocktail (ReadySafe®, Beckmann) each The mixture was vortexed and the amount of total or non-specifically bound radioactivity measured in a Beckmann LS500 liquid scinitllation counter with a 60% counting efficiency for tritium.
The concentrations of competitors that inhibited 50% of tritiated ponasterone A binding (IC50) was determined by incubating Kc or Plodia nuclear extracts or extracts of bacteria producing CfEcR(CDEF)-GST and CfUSP-GST fusions proteins with ^3H-ponasterone A (66,000 dpm per reaction) in the presence of a range of concentrations (0.1 nM to 10 μM) of test compounds. In the case of binding reactions using bacterial fusion proteins, 20 or one μl extract of bacteria producing CfEcR(CDEF)-GST or CfUSP-GST fusion proteins, respectively, were included per binding reaction. The assay conditions and determination of total and non-specific binding was as described above. The volume of competitor in solvent, like that for 20E or solvent alone, was kept at 1% of total reaction volume by using a 100 fold concentrated stock solution (i.e. a 100 fold dilution of stock solutions). The remainder of the assay was as described above. Each reaction was carried out in duplicate per concentration per test compound. Specific binding of ^3H-ponasterone A was determined by subtracting non-specific binding (that obtained in the presence of 10 μM 20E) from total (no competitor) or competed radioactivity bound. […]

Row | Structure (SMILES) | Plodia log(1/IC50)
1 | CCc1c(OC)cccc1C(=O)NN(C(=O)c1cccc(OC)c1)C(C)(C)C [Ligand 1] | 8.52
2 | Cc1cc(C)cc(C(=O)N(NC(=O)c2ccc3c(c2C)OCCO3)C(C)(C)C)c1 [Ligand 2] | 9.14
3 | COc1cccc(C(=O)NN(C(=O)c2cc(C)cc(C)c2)C(C)(C)C)c1C [Ligand 3] | 9.04
4 | CCc1c(OC)cccc1C(=O)NN(C(=O)c1cc(F)cc(F)c1)C(C)(C)C [Ligand 4] | 8.51
5 | CCc1c(OC)cccc1C(=O)NN(C(=O)c1cc(C)cc(C)c1)C(C)(C)C [Ligand 5] | 9.49
6 | CCOc1cccc(C(=O)NN(C(=O)c2cc(C)cc(C)c2)C(C)(C)C)c1CC [Ligand 12] | 9.63
7 | CCc1c(OC)cccc1C(=O)NN(C(=O)c1cc(Cl)cc(Cl)c1)C(C)(C)C [Ligand 13] | 9.06
